Legend:
Type in all cases: cell-based
[1] = test system: beneficial oral bacteria and pathogenic oral bacteria; test: Extent of growth, whole panel: prebiotic effect; settings: threshold value of 1.25
Excerpt: Substrates that were able to increase the growth (or maximal growth density or extent of growth) of at least one of the above beneficial bacteria while not or only minimally increasing the growth (or maximal growth density) of the pathogenic bacteria are considered to be prebiotic compounds.
(§1) The extent of growth of the tested bacteria in response to selected compounds (Met-Pro, Phe-Glu) was investigated by setting up growth curves in a nutritionally rich medium (brain heart infusion broth (BHI), Oxoid), over 48 hours. Late exponential growth phase liquid cultures were prepared by transferring the respective bacterium from blood agar plates to BHI and overnight incubation at 37° C. in an anaerobic atmosphere for A. viscosus, V. parvula, F. nucleatum, P. gingivalis, P. intermedia, T. forsythia, A. naeslundii, and C. sputigena, and in a 5% CO2 environment for S. salivarius, S. sanguinis, S. mitis, A. actinomycetemcomitans, S. mutans, S. sobrinus and S. gordonii. Overnight cultures were transferred to BHI and adjusted to a concentration of 1×10^7 CFU/ml (colony forming units per ml) by measuring the optical density at 600 nm (OD600) (BioRad SmartSpec 3000). For each strain, 200 μl of the bacterial suspension was added to a 96-well plate containing 20 μl of the respective di-peptides. Final concentrations of the di-peptides were set to 5, 10, 20 and 25 μmol/ml. […] Plates were incubated as previously described.
(§2) For each combination of bacterium/dipeptide, and for each of their respective controls (i.e. the particular bacterium in the nutritionally rich medium with no dipeptide), the optical density was measured at 630 nm (OD630) at 0 h, 24 h and 48 h (Thermo Scientific Multiskan Ascent). Additionally, the OD630 for combinations of bacterium/dipeptide grown in a 5% CO2 environment were also measured every hour between 0 h and 9 h.
(§3) The experiment was carried out on three different days (thus providing 3 biological replicas) and on each day the experiment was carried out in quadruple (thus providing 4 technical replicas) for each combination of bacterium with dipeptide and for each control. For each day and for each combination, the average (mean) of the values obtained (as detailed above) for the four technical replicas was calculated to provide a single value for each combination on each day. The values shown in Tables 5 to 6, below, are the average (mean) of the three single values obtained for each combination of bacterium with dipeptide.
This value was selected in order to exclude low-stimulating metabolites and avoid false positive results.

Streptococcus sanguinis = test: Extent of growth, growth curves in BHI; settings: control = 1
Description: as §1, §2, §3

Streptococcus sobrinus = test: Extent of growth, growth curves in BHI; settings: control = 1
Description: as §1, §2, §3

Capnocytophaga sputigena = test: Extent of growth, growth curves in BHI; settings: control = 1
Description: as §1, §2, §3

Streptococcus salivarius = test: Extent of growth, growth curves in BHI; settings: control = 1
Description: as §1, §2, §3

Tannerella forsythia = test: Extent of growth, growth curves in BHI; settings: control = 1
Description: as §1, §2, §3

Actinomyces viscosus = test: Extent of growth, growth curves in BHI; settings: control = 1
Description: as §1, §2, §3

Veillonella parvula = test: Extent of growth, growth curves in BHI; settings: control = 1
Description: as §1, §2, §3

Streptococcus mitis = test: Extent of growth, growth curves in BHI; settings: control = 1
Description: as §1, §2, §3

[2] = test system: Aggregatibacter actinomycetemcomitans; test: Extent of growth, growth curves in BHI; settings: control = 1
Description: as §1, §2, §3

Streptococcus mutans = test: Extent of growth, growth curves in BHI; settings: control = 1
Description: as §1, §2, §3

Porphyromonas gingivalis = test: Extent of growth, growth curves in BHI; settings: control = 1
Description: as §1, §2, §3

Prevotella intermedia = test: Extent of growth, growth curves in BHI; settings: control = 1
Description: as §1, §2, §3

Actinomyces naeslundii = test: Extent of growth, growth curves in BHI; settings: control = 1
Description: as §1, §2, §3

Streptococcus gordonii = test: Extent of growth, growth curves in BHI; settings: control = 1
Description: as §1, §2, §3

Fusobacterium nucleatum = test: Extent of growth, growth curves in BHI; settings: control = 1
Description: as §1, §2, §3

Substance: Phe-Glu
- prebiotic effects (extent of growth) ([1]; 5 μmol/ml): exhibited prebiotic effects
- prebiotic effects (extent of growth) ([1]; 10 μmol/ml): exhibited prebiotic effects
- extent of growth: maximal OD630 over 48 hr divided by maximal OD of control (Streptococcus sanguinis; 5 μmol/ml): 0.8140
- extent of growth: maximal OD630 over 48 hr divided by maximal OD of control (Streptococcus sanguinis; 10 μmol/ml): 0.5644
- extent of growth: maximal OD630 over 48 hr divided by maximal OD of control (Streptococcus sanguinis; 20 μmol/ml): 0.2451
- extent of growth: maximal OD630 over 48 hr divided by maximal OD of control (Streptococcus sanguinis; 25 μmol/ml): 0.2334
- extent of growth: maximal OD630 over 48 hr divided by maximal OD of control (Streptococcus sobrinus; 5 μmol/ml): 1.0790
- extent of growth: maximal OD630 over 48 hr divided by maximal OD of control (Streptococcus sobrinus; 10 μmol/ml): 0.9900
- extent of growth: maximal OD630 over 48 hr divided by maximal OD of control (Streptococcus sobrinus; 20 μmol/ml): 0.5832
- extent of growth: maximal OD630 over 48 hr divided by maximal OD of control (Streptococcus sobrinus; 25 μmol/ml): 0.4315
- extent of growth: maximal OD630 over 48 hr divided by maximal OD of control (Capnocytophaga sputigena; 5 μmol/ml): 0.9921
- extent of growth: maximal OD630 over 48 hr divided by maximal OD of control (Capnocytophaga sputigena; 10 μmol/ml): 0.9872
- extent of growth: maximal OD630 over 48 hr divided by maximal OD of control (Capnocytophaga sputigena; 20 μmol/ml): 1.0801
- extent of growth: maximal OD630 over 48 hr divided by maximal OD of control (Capnocytophaga sputigena; 25 μmol/ml): 1.1804
- extent of growth: maximal OD630 over 48 hr divided by maximal OD of control (Streptococcus salivarius; 5 μmol/ml): 0.9916
- extent of growth: maximal OD630 over 48 hr divided by maximal OD of control (Streptococcus salivarius; 10 μmol/ml): 0.8123
- extent of growth: maximal OD630 over 48 hr divided by maximal OD of control (Streptococcus salivarius; 20 μmol/ml): 0.2953
- extent of growth: maximal OD630 over 48 hr divided by maximal OD of control (Streptococcus salivarius; 25 μmol/ml): 0.2322
- extent of growth: maximal OD630 over 48 hr divided by maximal OD of control (Tannerella forsythia; 5 μmol/ml): 1.0118
- extent of growth: maximal OD630 over 48 hr divided by maximal OD of control (Tannerella forsythia; 10 μmol/ml): 0.7490
- extent of growth: maximal OD630 over 48 hr divided by maximal OD of control (Tannerella forsythia; 20 μmol/ml): 0.7707
- extent of growth: maximal OD630 over 48 hr divided by maximal OD of control (Tannerella forsythia; 25 μmol/ml): 0.8302
- extent of growth: maximal OD630 over 48 hr divided by maximal OD of control (Actinomyces viscosus; 5 μmol/ml): 0.5112
- extent of growth: maximal OD630 over 48 hr divided by maximal OD of control (Actinomyces viscosus; 10 μmol/ml): 0.3845
- extent of growth: maximal OD630 over 48 hr divided by maximal OD of control (Actinomyces viscosus; 20 μmol/ml): 0.1598
- extent of growth: maximal OD630 over 48 hr divided by maximal OD of control (Actinomyces viscosus; 25 μmol/ml): 0.1563
- extent of growth: maximal OD630 over 48 hr divided by maximal OD of control (Veillonella parvula; 5 μmol/ml): 1.0286
- extent of growth: maximal OD630 over 48 hr divided by maximal OD of control (Veillonella parvula; 10 μmol/ml): 1.0199
- extent of growth: maximal OD630 over 48 hr divided by maximal OD of control (Veillonella parvula; 20 μmol/ml): 0.9533
- extent of growth: maximal OD630 over 48 hr divided by maximal OD of control (Veillonella parvula; 25 μmol/ml): 1.0475
- extent of growth: maximal OD630 over 48 hr divided by maximal OD of control (Streptococcus mitis; 5 μmol/ml): 1.9957
- extent of growth: maximal OD630 over 48 hr divided by maximal OD of control (Streptococcus mitis; 10 μmol/ml): 2.0642
- extent of growth: maximal OD630 over 48 hr divided by maximal OD of control (Streptococcus mitis; 20 μmol/ml): 0.3250
- extent of growth: maximal OD630 over 48 hr divided by maximal OD of control (Streptococcus mitis; 25 μmol/ml): 0.4367
- extent of growth: maximal OD630 over 48 hr divided by maximal OD of control ([2]; 5 μmol/ml): 0.5643
- extent of growth: maximal OD630 over 48 hr divided by maximal OD of control ([2]; 10 μmol/ml): 0.3227
- extent of growth: maximal OD630 over 48 hr divided by maximal OD of control ([2]; 20 μmol/ml): 0.2201
- extent of growth: maximal OD630 over 48 hr divided by maximal OD of control ([2]; 25 μmol/ml): 0.2320
- extent of growth: maximal OD630 over 48 hr divided by maximal OD of control (Streptococcus mutans; 5 μmol/ml): 0.9703
- extent of growth: maximal OD630 over 48 hr divided by maximal OD of control (Streptococcus mutans; 10 μmol/ml): 0.9003
- extent of growth: maximal OD630 over 48 hr divided by maximal OD of control (Streptococcus mutans; 20 μmol/ml): 0.4212
- extent of growth: maximal OD630 over 48 hr divided by maximal OD of control (Streptococcus mutans; 25 μmol/ml): 0.2492
- extent of growth: maximal OD630 over 48 hr divided by maximal OD of control (Porphyromonas gingivalis; 5 μmol/ml): 0.8526
- extent of growth: maximal OD630 over 48 hr divided by maximal OD of control (Porphyromonas gingivalis; 10 μmol/ml): 0.9810
- extent of growth: maximal OD630 over 48 hr divided by maximal OD of control (Porphyromonas gingivalis; 20 μmol/ml): 0.4181
- extent of growth: maximal OD630 over 48 hr divided by maximal OD of control (Porphyromonas gingivalis; 25 μmol/ml): 0.4208
- extent of growth: maximal OD630 over 48 hr divided by maximal OD of control (Prevotella intermedia; 5 μmol/ml): 1.1149
- extent of growth: maximal OD630 over 48 hr divided by maximal OD of control (Prevotella intermedia; 10 μmol/ml): 0.2856
- extent of growth: maximal OD630 over 48 hr divided by maximal OD of control (Prevotella intermedia; 20 μmol/ml): 0.2094
- extent of growth: maximal OD630 over 48 hr divided by maximal OD of control (Prevotella intermedia; 25 μmol/ml): 0.2224
- extent of growth: maximal OD630 over 48 hr divided by maximal OD of control (Actinomyces naeslundii; 5 μmol/ml): 0.7791
- extent of growth: maximal OD630 over 48 hr divided by maximal OD of control (Actinomyces naeslundii; 10 μmol/ml): 0.4962
- extent of growth: maximal OD630 over 48 hr divided by maximal OD of control (Actinomyces naeslundii; 20 μmol/ml): 0.1648
- extent of growth: maximal OD630 over 48 hr divided by maximal OD of control (Actinomyces naeslundii; 25 μmol/ml): 0.1653
- extent of growth: maximal OD630 over 48 hr divided by maximal OD of control (Streptococcus gordonii; 5 μmol/ml): 0.9682
- extent of growth: maximal OD630 over 48 hr divided by maximal OD of control (Streptococcus gordonii; 10 μmol/ml): 0.8613
- extent of growth: maximal OD630 over 48 hr divided by maximal OD of control (Streptococcus gordonii; 20 μmol/ml): 0.3992
- extent of growth: maximal OD630 over 48 hr divided by maximal OD of control (Streptococcus gordonii; 25 μmol/ml): 0.2908
- extent of growth: maximal OD630 over 48 hr divided by maximal OD of control (Fusobacterium nucleatum; 5 μmol/ml): 0.7990
- extent of growth: maximal OD630 over 48 hr divided by maximal OD of control (Fusobacterium nucleatum; 10 μmol/ml): 0.8493
- extent of growth: maximal OD630 over 48 hr divided by maximal OD of control (Fusobacterium nucleatum; 20 μmol/ml): 0.2311
- extent of growth: maximal OD630 over 48 hr divided by maximal OD of control (Fusobacterium nucleatum; 25 μmol/ml): 0.2402

Source: patent US10159640B2, “Prebiotic oral care compositions containing amino acids” (COLGATE-PALMOLIVE COMPANY, priority 2013, dated 2018)
